Experimental data taken from the NIST ThermoML archive (doi:10.1016/j.jct.2014.01.016).

Conditions: 298.15 K; Liquid; Gas chromatography

## CCC1CCC(=O)O1 (stereo unspecified) [2(3H)-furanone, 5-ethyldihydro-]
  vapor or sublimation pressure: 0.0225 kPa

## CCCCCC1CCC(=O)O1 (stereo unspecified) [2(3H)-furanone, dihydro-5-pentyl-]
  vapor or sublimation pressure: 0.00097 kPa

## CCCCCC1CCCC(=O)O1 (stereo unspecified) [2H-pyran-2-one, tetrahydro-6-pentyl-]
  vapor or sublimation pressure: 0.00027 kPa

## CCCC1CCCC(=O)O1 (stereo unspecified) [2H-pyran-2-one, tetrahydro-6-propyl-]
  vapor or sublimation pressure: 0.00221 kPa

## CCCCCCC1CCC(=O)O1 (stereo unspecified) [γ-decalactone]
  vapor or sublimation pressure: 0.00033 kPa

## CCCCCCCCC1CCC(=O)O1 (stereo unspecified) [γ-dodecanolactone]
  vapor or sublimation pressure: 4e-05 kPa

## CCCCC1CCC(=O)O1 (stereo unspecified) [γ-octanolactone]
  vapor or sublimation pressure: 0.00278 kPa

## CCCCCCCC1CCC(=O)O1 (stereo unspecified) [γ-undecanolactone]
  vapor or sublimation pressure: 0.00012 kPa

## CCCCCCCC1CCCC(=O)O1 (stereo unspecified) [δ-dodecanolactone]
  vapor or sublimation pressure: 3e-05 kPa

## CCCCC1CCCC(=O)O1 (stereo unspecified) [δ-nonanolactone]
  vapor or sublimation pressure: 0.00076 kPa

## CCCCCCC1CCCC(=O)O1 (stereo unspecified) [δ-undecanolactone]
  vapor or sublimation pressure: 9e-05 kPa
